Assay results as given in the supplement of paper PMC11061612.

Legend:
Assay in all cases: combination Emax (second highest fraction inhibited in the dose matrix, 72 h); higher = more inhibition; extreme values may be limits of the assay
[1] = system: 8505C (Thyroid Gland Carcinoma)
Summary of the method: (§1)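 Cell lines grown in DMEM/F12 or RPMI with 10% FBS were plated in 1536-well plates and held 24 hours at 37°C, 5% CO2 before 72 hours of exposure to two-drug dose matrices, with DMSO typically at 0.2%. CellTiter-Glo 2.0 luminescence gave viability, which was converted to inhibition. Vehicle wells were set to 0 and blank wells to 1. Combination Emax is the second-highest inhibition in the matrix, and Bliss excess is the observed combination effect minus the expected EA + EB − EA·EB, where EA and EB are the single-agent effects.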

[2] = system: CHSA8926 (Chondrosarcoma)
Summary of the method: as §1

[3] = system: G-361 (Melanoma)
Summary of the method: as §1

[4] = system: H9 (T-Cell Non-Hodgkin's Lymphoma)
Summary of the method: as §1

[5] = system: HCC1419 (Breast Carcinoma)
Summary of the method: as §1

[6] = system: IM-95 (Gastric Carcinoma)
Summary of the method: as §1

[7] = system: JHH-4 (Hepatocellular Carcinoma)
Summary of the method: as §1

[8] = system: KMS-12-BM (Plasma Cell Myeloma)
Summary of the method: as §1

[9] = system: KP-3 (Pancreatic Carcinoma)
Summary of the method: as §1

[10] = system: KU812 (Chronic Myelogenous Leukemia)
Summary of the method: as §1

[11] = system: KY821 (Acute Myeloid Leukemia)
Summary of the method: as §1

[12] = system: MOG-G-CCM (Low Grade Glioma)
Summary of the method: as §1

[13] = system: MOLM-13 (Acute Myeloid Leukemia)
Summary of the method: as §1

[14] = system: NCCIT (Other Solid Carcinomas)
Summary of the method: as §1

[15] = system: NCI-H520 (Squamous Cell Lung Carcinoma)
Summary of the method: as §1

[16] = system: NCI-H526 (Small Cell Lung Carcinoma)
Summary of the method: as §1

[17] = system: NCI-H929 (Plasma Cell Myeloma)
Summary of the method: as §1

[18] = system: PC-3 (Prostate Carcinoma)
Summary of the method: as §1

[19] = system: SJSA-1 (Osteosarcoma)
Summary of the method: as §1

[20] = system: ST486 (Burkitt's Lymphoma)
Summary of the method: as §1

Structure (SMILES) | combination Emax [1] | combination Emax [2] | combination Emax [3] | combination Emax [4] | combination Emax [5] | combination Emax [6] | combination Emax [7] | combination Emax [8] | combination Emax [9] | combination Emax [10] | combination Emax [11] | combination Emax [12] | combination Emax [13] | combination Emax [14] | combination Emax [15] | combination Emax [16] | combination Emax [17] | combination Emax [18] | combination Emax [19] | combination Emax [20]
CCN(CCO)CCCOc1ccc2c(Nc3cc(CC(=O)Nc4cccc(F)c4)[nH]n3)ncnc2c1 [AZD2811] + C[C@@H]1COCCN1C2=NC(=NC(=C2)C3(CC3)[S@](=N)(=O)C)C4=C5C=CNC5=NC=C4 [AZD6738] (first compound max 1 µM, 7x7, partner max 10 µM) | 0.278 | 0.332 | 0.441 | 0.977 | 0.0919 | 0.312 | 0.0985 | 0.941 | 0.368 | 0.799 | 0.968 | 0.492 | 1 | 0.561 | 0.663 | 0.634 | 0.641 | 0.431 | 0.289 | 0.913
CCN(CCO)CCCOc1ccc2c(Nc3cc(CC(=O)Nc4cccc(F)c4)[nH]n3)ncnc2c1 [AZD2811] + O=C(c1cc(Cc2n[nH]c(=O)c3ccccc23)ccc1F)N1CCN(C(=O)C2CC2)CC1 [Olaparib] (first compound max 1 µM, 7x7, partner max 10 µM) | 0.212 | 0.3 | 0.34 | 0.71 | 0.115 | 0.362 | 0.0395 | 0.34 | 0.144 | 0.678 | 0.455 | 0.285 | 1 | 0.226 | 0.345 | 0.642 | 0.292 | 0.179 | 0.17 | 0.856
CN(CCO)CC[C@H](CSc1ccccc1)Nc1ccc(S(=O)(=O)NC(=O)c2ccc(N3CCC([C@@H](O)c4ccccc4-c4ccc(Cl)cc4)CC3)cc2)cc1S(=O)(=O)C(F)(F)F [AZD4320] + C1CN(CCC1(C(=O)N[C@@H](CCO)C2=CC=C(C=C2)Cl)N)C3=NC=NC4=C3C=CN4 [Capivasertib] (first compound max 1 µM, 7x7, partner max 3 µM) | 0.135 | 0.579 | 0.234 | 0.986 | 0.879 | 0.658 | 0.0846 | 1 | 0.0865 | 0.737 | 1 | 0.528 | 1 | 0.378 | 0.593 | 0.929 | 0.969 | 0.231 | 0.392 | 0.881
CN(CCO)CC[C@H](CSc1ccccc1)Nc1ccc(S(=O)(=O)NC(=O)c2ccc(N3CCC([C@@H](O)c4ccccc4-c4ccc(Cl)cc4)CC3)cc2)cc1S(=O)(=O)C(F)(F)F [AZD4320] + C=CCn1c(=O)c2cnc(Nc3ccc(N4CCN(C)CC4)cc3)nc2n1-c1cccc(C(C)(C)O)n1 [AZD1775] (first compound max 1 µM, partner max 1 µM) | 0.187 | 0.852 | 0.665 | 1 | 0.0041 | 0.791 | 0.688 | 1 | 0.314 | 0.956 | 1 | 0.733 | 1 | 0.878 | 0.76 | 0.972 | 0.402 | 0.204 | 0.392 | 1
CN(CCO)CC[C@H](CSc1ccccc1)Nc1ccc(S(=O)(=O)NC(=O)c2ccc(N3CCC([C@@H](O)c4ccccc4-c4ccc(Cl)cc4)CC3)cc2)cc1S(=O)(=O)C(F)(F)F [AZD4320] + CCN(CCO)CCCOc1ccc2c(Nc3cc(CC(=O)Nc4cccc(F)c4)[nH]n3)ncnc2c1 [AZD2811] (first compound max 1 µM, 7x7, partner max 1 µM) | 0.369 | 0.643 | 0.41 | 0.978 | 0.0755 | 0.859 | 0.17 | 1 | 0.0781 | 0.885 | 1 | 0.773 | 1 | 0.181 | 0.689 | 0.961 | 0.227 | 0.366 | 0.335 | 0.979
CN(CCO)CC[C@H](CSc1ccccc1)Nc1ccc(S(=O)(=O)NC(=O)c2ccc(N3CCC([C@@H](O)c4ccccc4-c4ccc(Cl)cc4)CC3)cc2)cc1S(=O)(=O)C(F)(F)F [AZD4320] + CN(C)CCCOc1ccc(-c2ccc3ncc4c(c3c2)n(C2CCOCC2)c(=O)n4C)cn1 [AZD0156] (first compound max 1 µM, 7x7, partner max 1 µM) | 0.174 | 0.46 | 0.288 | 0.996 | 0.245 | 0.69 | 0.293 | 1 | 0.0528 | 0.751 | 1 | 0.474 | 1 | 0.174 | 0.474 | 0.925 | 0.681 | 0.241 | 0.283 | 0.911
CN(CCO)CC[C@H](CSc1ccccc1)Nc1ccc(S(=O)(=O)NC(=O)c2ccc(N3CCC([C@@H](O)c4ccccc4-c4ccc(Cl)cc4)CC3)cc2)cc1S(=O)(=O)C(F)(F)F [AZD4320] + C[C@@H]1COCCN1C2=NC(=NC(=C2)C3(CC3)[S@](=N)(=O)C)C4=C5C=CNC5=NC=C4 [AZD6738] (first compound max 1 µM, 7x7, partner max 10 µM) | 0.59 | 0.761 | 0.629 | 1 | 0.367 | 0.778 | 0.385 | 1 | 0.486 | 0.942 | 1 | 0.783 | 1 | 0.727 | 0.696 | 0.977 | 0.739 | 0.584 | 0.557 | 0.969
CN(CCO)CC[C@H](CSc1ccccc1)Nc1ccc(S(=O)(=O)NC(=O)c2ccc(N3CCC([C@@H](O)c4ccccc4-c4ccc(Cl)cc4)CC3)cc2)cc1S(=O)(=O)C(F)(F)F [AZD4320] + C[C@@H](Nc1cc(F)cc(F)c1)c1cc(C(=O)N(C)C)cc2c(=O)cc(N3CCOCC3)oc12 [AZD8186] (first compound max 1 µM, 7x7, partner max 3 µM) | 0.502 | 0.863 | 0.332 | 0.958 | 0.342 | 0.855 | 0.34 | 1 | 0.178 | 0.705 | 1 | 0.728 | 1 | 0.329 | 0.688 | 0.973 | 0.792 | 0.437 | 0.315 | 0.887
CN(CCO)CC[C@H](CSc1ccccc1)Nc1ccc(S(=O)(=O)NC(=O)c2ccc(N3CCC([C@@H](O)c4ccccc4-c4ccc(Cl)cc4)CC3)cc2)cc1S(=O)(=O)C(F)(F)F [AZD4320] + Cc1cc2ncnn2cc1Nc1ncc2c(n1)n(C1CCOCC1)c(=O)n2C [AZD7648] (first compound max 1 µM, 7x7, partner max 10 µM) | 0.484 | 0.688 | 0.205 | 0.99 | 0.278 | 0.6 | 0.233 | 1 | 0.0376 | 0.872 | 1 | 0.558 | 1 | 0.243 | 0.541 | 0.908 | 0.737 | 0.213 | 0.283 | 0.959
CN(CCO)CC[C@H](CSc1ccccc1)Nc1ccc(S(=O)(=O)NC(=O)c2ccc(N3CCC([C@@H](O)c4ccccc4-c4ccc(Cl)cc4)CC3)cc2)cc1S(=O)(=O)C(F)(F)F [AZD4320] + Cn1cnc2c(F)c(Nc3ccc(Br)cc3Cl)c(C(=O)NOCCO)cc21 [Selumetinib] (first compound max 1 µM, 7x7, partner max 3 µM) | 0.475 | 0.643 | 0.849 | 1 | 0.336 | 0.876 | 0.326 | 1 | 0.198 | 0.966 | 1 | 0.576 | 1 | 0.224 | 0.203 | 0.984 | 0.631 | 0.352 | 0.429 | 0.866
COc1nnc2ccc(N3CCC(c4ccc(OCCN5CCN(C)C(=O)[C@H]5C)cc4)CC3)nn12 [AZD5153] + C=CCn1c(=O)c2cnc(Nc3ccc(N4CCN(C)CC4)cc3)nc2n1-c1cccc(C(C)(C)O)n1 [AZD1775] (first compound max 1 µM, partner max 1 µM) | 0.574 | 0.735 | 0.734 | 1 | 0.346 | 0.5 | 0.56 | 1 | 0.4 | 0.931 | 1 | 0.615 | 1 | 0.939 | 0.811 | 0.947 | 0.908 | 0.447 | 0.589 | 0.985
